{"source": "patent US7527814B2", "about": "“Process for the isolation of calliterpenone” (Council of Scientific and Industrial Research, priority 2006, dated 2009)", "origin": "cited, not measured here", "key": {"[1]": {"test_system": "growth retardant effects produced by allelochemicals", "conditions": "Singh et al., U.S. Pat. No. 6,673,749 (2004)"}, "plant growth": {"test_system": "plant growth", "conditions": "if used in a particular method"}}}
{"smiles": "CC1(C)C(=O)CC[C@@]2(C)[C@H]1CC[C@@]13C[C@H](CC[C@@H]12)[C@@](O)(CO)C3", "note": "[calliterpenone, 16α,17 dihydroxy-3-oxo phyllocladane]", "values": [{"measurement": "effect on growth retardant effects produced by allelochemicals", "setting": "[1]", "result": "antagonizes the growth retardant effects produced by allelochemicals"}, {"measurement": "plant growth promoting effect compared with GA3", "setting": "plant growth", "result": "better plant growth promoting effect than GA3"}]}
